Reference: patent US10195248B2, “Use of haptoglobin subunit for promoting wound healing” (Taipei Medical University, priority 2016, dated 2019)

System: low-density lipoproteins (LDL)
Test: Anti-oxidant test (TBARS production, Cu-induced LDL oxidation)
Type: biochemical
Conditions: 5 μM CuSO4, 20 μg LDL, 37° C., 2 hours; TBARS absorbance 540 nm; FIG. 1
Protocol: In this experiment, production level of thiobarbituric acid-reactive substances (TBARS) was measured to determine oxidization level of low-density lipoproteins (LDL). Specifically, […], of each test article was mixed with 5 μM copper (II) sulfate (CuSO4) and 20 μg of LDL, and then incubated at 37° C. for 2 hours. 250 μL of 20% tricholoroacetic acid was added to the precipitated protein. After that, 250 μL of 0.67% 2-thiobarbituric acid was added to the obtained mixture and incubated at 80° C. for 30 minutes. The final resultant was separated to give a supernatant by centrifugation at 3,000 g for 5 minutes. 300 μL of the supernatant was taken to a 96-well plate to measure its absorbance under 540 nm.

Row | inhibitory concentration (IC50) for anti-oxidant activity (rank order) | Molecule
1 | follow it sequentially | CC(C)(Sc1cc(C(C)(C)C)c(O)c(C(C)(C)C)c1)Sc1cc(C(C)(C)C)c(O)c(C(C)(C)C)c1 [probucol, Probucol]
2 | follow it sequentially | Hp β subunit: haptoglobin β subunit
